# Test results: patent US9926269B2, “Beta-lactam cholesterol absorption inhibitors” (Rudjer Boskovic Institute, priority 2013, dated 2018)
# Assays:
# Format in all cases: cell-based
# [1] = test system: MDCKII cells stably expressing human NPC1L1 (hNPC1L1/MDCKII); experiment: Cytotoxicity assay (MTT cell proliferation assay), hNPC1L1/MDCKII cells; details: 72 h incubation, read-out: hNPC1L1MDCKII LC50
# Description: (§1) The cells were grown at 37° C. in a humidified 5% CO2 incubator. Stable transfection of MDCKII cells with human NPC1L1 protein was performed using the Lipofectamine LTX (Invitrogen, USA) according to the manufecturer's protocol. Selection with 1000 μg/mL G418 (Sigma-Aldrich, Germany) was started 2 days after transfection. The concentration of G418 was decreased to 500 μg/mL after 14 days. Transfected cells were maintained in DMEM (Dulbecco's Modified Eagle Medium) containing 100 units/mL penicillin and 100 μg/mL streptomycin supplemented with 10% FCS and 500 μg/mL G418.
# (§2) For the cytotoxicity determination, MDCKII, hNPC1L1/MDCKII and HepG2 cells were seeded in 96-well microtiter plates on day 0 at the density of 3000 cells/well. […] The compound cytotoxicity was assessed on day 4 performing the MTT cell proliferation assay (Sigma-Aldrich, Germany) which detects mitochondrial dehydrogenase activity in viable cells. (Mosmann, T. J. Immunol. Methods 1983, 65, 55.) The results are expressed as LC50 and the values for each compound were calculated from dose-response curves using linear regression analysis. Each concentration was tested in quadruplicate in three independent experiments (Table 1).
# [2] = Cytotoxicity assay (MTT cell proliferation assay), MDCKII cells; details: dog, 72 h incubation, read-out: MDCKII LC50
# Description: as §1, §2
# [3] = Cytotoxicity assay (MTT cell proliferation assay), hNPC1L1/MDCKII cells; details: dog, MDCKII cells stably expressing human NPC1L1 (hNPC1L1/MDCKII), 72 h incubation, read-out: hNPC1L1MDCKII LC50
# Description: as §1, §2
# [4] = Cytotoxicity assay (MTT cell proliferation assay), HepG2 cells; details: human, 72 h incubation, read-out: HepG2 LC50
# Description: as §1, §2
smiles,measurement,setting,value
"O=C(/C=C/c1ccc(F)cc1)N[C@H]1C(=O)N(c2ccc(F)cc2)[C@@H]1c1ccc(O)cc1 [Compound 3, (E)-1-[(3R,4R)-1-(4-fluorophenyl)-4-(4-hydroxyphenyl)-2-oxo-3-azetidinylamino]-3-(4-fluorophenyl)-2-propen-1-one]",CC50,[1],63.3 µM
"O=C1[C@H](NC[C@H](O)c2ccc(F)cc2)[C@@H](c2ccc(O)cc2)N1c1ccc(F)cc1 [Compound 8, (3R,4R)-3-[(2R)-2-(4-fluorophenyl)-2-hydroxyethylamino]-1-(4-fluorophenyl)-4-(4-hydroxyphenyl)azetidin-2-one]",CC50 at 72 h,[2],> 100 µM
same,CC50 at 72 h,[3],> 100 µM
same,CC50 at 72 h,[4],> 100 µM
"O=C1[C@H](NC[C@@H](O)c2ccc(F)cc2)[C@@H](c2ccc(O)cc2)N1c1ccc(F)cc1 [Compound 9, (3R,4R)-3-[(2S)-2-(4-fluorophenyl)-2-hydroxyethylamino]-1-(4-fluorophenyl)-4-(4-hydroxyphenyl)azetidin-2-one]",CC50 at 72 h,[2],> 100 µM
same,CC50 at 72 h,[3],> 100 µM
same,CC50 at 72 h,[4],> 100 µM
"O=C1[C@H](NCC(O)c2ccc(F)cc2)[C@@H](c2ccc(O)cc2)N1c1ccc(F)cc1 (mixture of isomers) [8/9-70/30, (3R,4R)-3-[(2R/S)-2-(4-fluorophenyl)-2-hydroxyethylamino]-1-(4-fluorophenyl)-4-(4-hydroxyphenyl)azetidin-2-one]",CC50 at 72 h,[2],> 100 µM
same,CC50 at 72 h,[3],> 100 µM
same,CC50 at 72 h,[4],> 100 µM
